Assay results as given in patent US20140011977A1, “CHIMERIC MOLECULES TO MODULATE GENE EXPRESSION” (Cold Spring Harbor Laboratory, priority 2000, published 2014).

B1: SC35: recombinant human SR protein SC35 used to complement S100 extract (protein, UniProt Q01130 2-221, looked up)
Serine/arginine-rich splicing …: SYGRPPPDVEGMTSLKVDNLTYRTSPDTLRRVFEKYGRVGDVYIPRDRYTKESRGFAFVRFHDKRDAEDAMDAMDGAVLDGRELRVQMARYGRPPDSHHSRRGPPPRRYGGGGYGRRSRSPRRRRRSRSRSRSRSRSRSRSRYSRSKSRSRTRSRSRSTSKSRSARRSKSKSSSVSRSRSRSRSRSRSRSPPPVSKRESKSRSRSKSPPKSPEEEGAVSS

What was measured:
[1] = test system: SMN2 pre-mRNA exon 7; experiment: S100 extract complementation in vitro splicing, SMN2 pre-mRNA; type: biochemical, human
Method: (§1) Finally, splicing of SNM1 and SMN2 pre-mRNAs in S100-complementation experiments was used to test the SR protein specificity of the ESEs. S100 extract is a post-nuclear, post-ribosomal fraction capable of supporting in vitro splicing only when complemented with one or more SR proteins. When the SMN pre-mRNAs were incubated in S100 extract alone, spliced products were barely detectable (FIG. 17b, lanes 5-8).
(§2) 5′ capped, T7 runoff transcripts from purified PCR products were uniformly labeled with [α-^32P] UTP, purified by denaturing PAGE, and spliced in HeLa cell nuclear or S100 extracts, as described. Briefly, 10 fmol of transcript was incubated in 12.5-μl standard splicing reactions containing 3 μl of nuclear extract or 2 μl of S100 extract complemented with 4 pmol of recombinant SC35 or SF2/ASF. The MgCl2 concentration was 2.4 mM for BRCA1 transcripts and 1.6 mM for SMN transcripts. After incubation at 30° C. for 4 hours, RNA was extracted and analyzed on 12% (BRCA1) or 8% (SMN) denaturing polyacrylamide gels, followed by autoradiography and phosphorimager analysis. Exon inclusion was calculated as a percentage of the total amount of spliced mRNAs, i.e., included mRNA×100/(included mRNA+skipped mRNA).

[2] = test system: SMN1 pre-mRNA exon 7; experiment: S100 extract complementation in vitro splicing, SMN1 pre-mRNA; type: biochemical, human; conditions: S100 extract complemented with 4 pmol recombinant SR protein, 4 hours
Method: as §1, §2

[3] = test system: β-globin pre-mRNA; experiment: S100 extract complementation with β-globin pre-mRNA; type: biochemical; conditions: data not shown

| Molecule | exon 7 inclusion, SMN2 pre-mRNA ([1]; S100 extract complemented with 4 pmol recombinant SR protein, 4 hours) | exon 7 inclusion, SMN2 context, high concentrations of SR protein ([1]; S100 extract, high concentrations, data not shown) | exon 7 inclusion, SMN1 pre-mRNA [2] | complementation of S100 extract [3] |
| --- | --- | --- | --- | --- |
| SF2/ASF: recombinant human SR protein SF2/ASF used to complement S100 extract | much less efficiently | promoted significant inclusion | promoted exon 7 inclusion |  |
| B1 |  |  | failed to drive exon 7 inclusion | efficiently complemented S100 extract |
